Assay results as given in patent US20090203594A1, “Anticancer peptide” (priority 2004, published 2009).
Like-named read-outs stand apart in the source and are kept apart here. No end group written: not given here.

Key:
ICR 27 leukemic cells = experiment: Reduction in ICR 27 leukemic cells by exogenous application of peptide (cell count); format: cell-based, human; details: for cell killing: ICR-27, peptide added exogenously without electroporation; for Cells/ml after 23 h: 1 h in serum-free medium then growth medium, average of duplicate counts
Protocol: At the maximum dose tested in this experiment, pDBD*4R9 caused over a 2-log loss of cells.
At t=0, growing cells were removed from medium, washed, and plated at 4.0×10^6 cells/ml in serum-free medium to which the peptide was added from a stock solution. Control peptide was GnRHR7 (Gonadotropin Releasing Hormone with a 7-arginine polymer added covalently). One hour later cells were diluted into growth medium. After 23 h, each culture was counted in duplicate. Average values are shown. Similar dose-related responses to pDBD*4R9 have been seen in 3 experiments.

[1] = tested on: ICR-27 lymphoblastic clonal cell line; experiment: Electroporation of pDBD*4 into ICR-27 cells, cell death; format: cell-based, human; details: transfected by electroporation
Protocol: FIG. 1 (A and B). Human leukemic ICR-27-4 cells were electroporated (500 μF, 300V) with 2 μg pDBD*4 peptide or without peptide (Control). Equal concentrations of cells were then plated and quantified for viable cell numbers over time.
(§1) Derivation of ICR-27 cells is found in Molecular & Cellular Biology (1981) 1:512-21 and of CEM1-15 and CEM7-14 in Genomics (2003) 81:175-97.
Equal concentrations of cells were then plated.
In FIG. 1A, cell viability was evaluated after 4 hr using the WST-1 dye reduction assay (8,9). Quadruplicate wells of a 96 well plate each received 200 μl of cells plus 20 μl of WST-1 dye. The plate was then placed in a tissue culture incubator for 4 hours. Spectrophotometric analysis was carried out on a plate reader with Absorbance read at 450-595 nm. Absorbancies were corrected for the average of triplicate chemical blanks (200 μl growth medium plus 20 μl WST-1 dye). Data are presented as percent of control.
In FIG. 1B, cell concentrations were determined after 4 hr. and 24 hr. by hemocytometer counts of duplicate aliquots, with trypan blue dye added in the 24 hr samples to discriminate non-viable, but membrane-intact cells.

[2] = tested on: CEM 1-15 lymphoblastic clonal cell line; experiment: Electroporation of pDBD*4 into CEM 1-15 cells, cell death; format: cell-based, human; details: transfected by electroporation
Description: as §1

[3] = tested on: CEM C7-14 lymphoblastic clonal cell line; experiment: Electroporation of pDBD*4 into CEM C7-14 cells, cell death; format: cell-based, human; details: transfected by electroporation
Description: as §1

[4] = tested on: cell clones from the CEM leukemic cell system; experiment: pDBD*4 in glucocorticoid-susceptible and -resistant clones of the CEM leukemic cell system; format: cell-based, human
Protocol: pDBD*4 was tested in cell clones from the CEM leukemic cell system. Some of those clones are susceptible to apoptotic cell death evoked by steroids of the glucocorticoid class; others are not. Both types of clones were killed by electroporation of pDBD*4 into the cells, whereas exogenous application of pDBD*4 produced no effect.

[5] = tested on: non-malignant NIH-3T3 cells; experiment: WST-1 dye reduction viability assay, NIH-3T3; format: cell-based
Protocol: (§2) A more quantitative assay was carried out using as an endpoint the reduction of a water-soluble tetrazolium dye (WST-1). This method has been employed to follow the effects of various chemotherapeutic agents on malignant cells (Hwang, W. S., Chen, L. M., Huang, S. H., Wang, C. C., Tseng, M. T. Prediction of chemotherapy response in human leukemia using in vitro chemosensitivity test. Leuk Res. 17:685-688, 1993; Pieters, R., Loonen, A. H., Huismans, D. R., Broekema, G. J., Dirven, M. W., Heyenbrok, M. W., Hahlen, K., Veerman, A. J. In vitro drug sensitivity of cells with children with leukemia using the MTT assay with approved culture conditions. Blood 76:2327-2336, 1990).
(§3) Viable cells can reduce the dye; dead cells cannot. The effects on pDBD*4R9 on MCF-7 breast cancer cells and non-malignant NIH-3T3 cells were compared (Table 2).
(§4) 20,000 cells were plated in triplicate in a 96 well plate. 24 hr later, cells were washed once and growth medium was replaced with serum free medium containing pDBD*4R9 (termed ‘Frag49’ in the table) or no peptide (Control) and placed in a tissue culture incubator at 37 deg. After 1 hr, serum-containing medium was added to each well and the plates were reincubated for 5 hr. 20 μl of WST-1 dye was then added to each well, and 4 hr later, Absorbance at 450-595 nm was determined spectrophotometrically. A chemical blank (avg. of 4 wells, medium plus dye only) was subtracted from each raw score.

[6] = tested on: MCF-7 breast cancer cells; experiment: WST-1 dye reduction viability assay, MCF-7; format: cell-based, human
Protocol: as §2, §3, §4

[7] = tested on: colon cancer line, CaCo-2; experiment: WST viability assay, colon cancer line; format: cell-based
Protocol: (§5) For each cell line, the protocol was the same for determining the effects of pDBD*4R9.
(§6) Cells were plated in equal numbers and washed free of growth medium.
(§7) The peptide pDBD*4R9 was then added to the cells for one hour, after which they were returned to growth medium.
(§8) At a suitable interval thereafter, they were assayed for viability by use of the WST assay (described above), which measures the ability of viable cells' mitochondria to metabolize and therefore change the color of a water soluble tetrazolium dye (WST). By measuring the absorbance of the color, one has a quantitative correlate of viability: More absorbance=more viable cells.

[8] = tested on: human leukemic CEM C714 cells; experiment: Exogenous peptide on CEM C7-14 leukemic cells (WST viability); format: cell-based
Protocol: (§9) As shown below, pDBD*R9 was administered to CEM cell clones ICR-27, C7-14, and C1-15. Two of these clones are resistant to the synthetic glucocorticoid dexamethasone, commonly used in the treatment of acute lymphoblastic leukemia.
as §5, §6, §7, §8

CEM cell clone C1-15 = experiment: Exogenous peptide on CEM clone C1-15; format: cell-based, human; details: CEM clone C1-15, peptide administered exogenously
Protocol: as §9

SWB-39 glioma = experiment: Killing of SWB-39 glioma cells; format: cell-based
[9] = tested on: basal cell carcinoma cells; experiment: Killing of basal cell carcinoma cells; format: cell-based; details: line of basal cell carcinoma cells
[10] = tested on: breast cancer GT-MCF-7 cells; experiment: AlarmarBlue viability assay on GT-MCF-7 cells; format: cell-based, human; details: GT-MCF-7, four-hour treatment
Protocol: as §5
Cells were plated in equal numbers and washed free of growth medium. […]
In the experiment on MCF-7 cells, an equivalent assay (AlarmarBlue) was used.

[11] = tested on: MCF-7 breast cancer cells; experiment: Killing of MCF-7 breast cancer cells (qualitative); format: cell-based, human
[12] = NIH-3T3, 1 h peptide, 5 h reincubation, 4 h dye, blank subtracted
[13] = MCF-7, 1 h peptide, 5 h reincubation, 4 h dye, blank subtracted

tyr-leu-cys-ala-gly-arg-asn-asp-cys-ile-ile-ala-ile-lys-phe-glu-glu-lys-thr-ala-gln-his-ala-ala-ile-glu-asn-val-phe-arg-leu-glu (YLCAGRNDCIIAIKFEEKTAQHAAIENVFRLE) [pDBD*4, 32-amino acid synthetic polypeptide, portion of the 89 aa peptide encoded by gene 398-465*]
cell killing (ICR 27 leukemic cells): did not | cell death [1]: causes cell death | cell death [2]: causes cell death | cell death [3]: causes cell death | cell killing ([4]; electroporation into glucocorticoid-susceptible and non-susceptible CEM clones): killed | effect on cells ([4]; exogenous application, CEM clones): no effect

RRRRRRRRRYLCAGRNDCIIAIKFEEKTAQHAAIENVFRLE (cysteines drawn unpaired) [pDBD*4R9]
Cells/ml after 23 h (ICR 27 leukemic cells; 5 μM peptide): 1.8 × 10^5 Cells/ml | Cells/ml after 23 h (ICR 27 leukemic cells; 10 μM peptide): 1.95 × 10^5 Cells/ml | Cells/ml after 23 h (ICR 27 leukemic cells; 20 μM peptide): 0.5 × 10^5 Cells/ml | cell loss / growth inhibition with increasing concentrations (ICR 27 leukemic cells; ICR27-4, increasing concentrations): caused cell loss in a dose-dependent manner | loss of cells (ICR 27 leukemic cells; ICR27-4, maximum dose tested): > 2 log | cell killing (ICR 27 leukemic cells): killed the cells in a dose dependent manner | cell killing (ICR 27 leukemic cells; listed as pDBD*R9): killed in a dose-dependent manner | metabolism of the tetrazolium dye ([5]; NIH-3T3, dose of Table 2): not significantly altered | WST-1 Absorbance, 450-595 nm, Well 1 [5, 12]: 0.199 | WST-1 Absorbance, 450-595 nm, Well 2 [5, 12]: 0.216 | WST-1 Absorbance, 450-595 nm, Well 3 [5, 12]: 0.196 | WST-1 Absorbance, 450-595 nm, Avg. ([5]; NIH-3T3, average of 3 wells): 0.204 | average reduction in ability to metabolize the tetrazolium dye ([6]; MCF-7, dose of Table 2): over 3 fold | WST-1 Absorbance, 450-595 nm, Well 1 [6, 13]: 0.045 | WST-1 Absorbance, 450-595 nm, Well 2 [6, 13]: 0.087 | WST-1 Absorbance, 450-595 nm, Well 3 [6, 13]: 0.289 | WST-1 Absorbance, 450-595 nm, Avg. ([6]; MCF-7, average of 3 wells): 0.140 | Absorbance ([7]; Expt 1, 25 microM, duplicates, avg +/- range): 0.08 +/− 0.01 | Absorbance ([7]; Expt 1, 50 microM, duplicates, avg +/- range): 0.16 +/− 0.005 | Absorbance ([7]; Expt 2, 100 microM, triplicates, avg +/- 1 SD): 0.19 +/− 0.05 | estimated cell kill ([7]; colon cancer cells, single treatment, 25-100 microM): 50-75% | anticancer effect (FIG. 3) ([8]; CEM C714 cells): significant anticancer effects | cell killing ([8]; CEM clone C7-14, peptide administered exogenously): killed in a dose-dependent manner | cell killing (CEM cell clone C1-15): killed in a dose-dependent manner | killing activity / cell death (SWB-39 glioma): caused death | killing activity / cell death (SWB-39 glioma; listed as pDBD*R9): Killing activity | killing activity / cell death [9]: caused death | killing activity / cell death ([9]; listed as pDBD*R9): Killing activity | anticancer effect (FIG. 2) [10]: significant anticancer effects | killing activity / cell death [11]: caused death | killing activity / cell death ([11]; listed as pDBD*R9): Killing activity
